Measurements: patent US20190111168A1, “PHOTOSENSITIZER DISPERSION, AND USE THEREOF” (Universität Regensburg, priority 2016, published 2019)

Assays:
[1] = test system: Escherichia coli (E. coli; ATCC Number: 25922); experiment: phototoxicity measurements (MTT test; colony forming units by Miles and Misra); type: cell-based; settings: for effectiveness against E. coli in a microemulsion compared with water: microemulsion versus water
Description: (§1) In order to investigate the phototoxicity of the microemulsions in accordance with the invention, a MTT test was used. Assaying cell vitality using a MTT test is based on the reduction of the yellow, water-soluble dye 3-(4,5-dimethylthiazol-2-yl)-2,5-diphenyltetrazolium bromide (MIT, Sigma-Aldrich Chemie GmbH, Munich, DE) into a blue-violet […] (formazan) which is insoluble in water. MTT is a dye which can pass through membranes, which is metabolized by mitochondrial dehydrogenases in living cells, which in the end leads to the formation of formazan crystals.
(§2) Formazan crystals can no longer pass through the membranes and accumulate in proliferating undamaged cells. After cell lysis and dissolving the crystals, the dye is then quantified by colorimetric measurement at 550 nm in a multi-well spectrophotometer (ELISA reader). The quantity of formazan formed is determined as the optical density (OD). The measured quantity of formazan is directly proportional to the number of proliferating cells, so that this test is suitable for the measurement of the phototoxicity of the microemulsions used. The measured OD can be assigned a cell count by means of a previously determined calibration curve.
(§3) The concentration of the respective photosensitizers TMPyP, SA-PN-01a, SA-PN-02a, SA-PN-24d, FL-AS-H-1a or FL-AS-H-2 in the microemulsions E1 to E4 was 0 μM, 10 μM, 25 μM, 50 μM, 100 μM, 250 μM and 500 μM.
(§4) Furthermore, the respective microemulsions E1 to E4 without photosensitizer were used as a control.
(§5) The phototoxicity measurements were carried out on Escherichia coli (E. coli; ATCC Number: 25922) and Staphylococcus aureus (S. aureus; ATCC Number: 25923), as described by Mosmann (1983). (Mosmann T.: Rapid colorimetric assay for cellular growth and survival: application to proliferation and cytotoxicity assays: J. Immunol. methods. 1983 (65); pages 55-63).
(§6) 25 μL of a suspension of the bacteria used were grown overnight in Müller-Hinton liquid medium (Merck KGaA, Darmstadt, Germany) with an optical density of 0.6 at 600 nm were incubated with 25 μL of the test solution at room temperature for 10 seconds in darkness in a 96-well microtitre plate (Cellstar, Greiner Bio-One, Frickenhausen, Germany).
(§7) Next, the microtitre plate was irradiated for 40 s. For irradiation, the light source Blue V from Waldmann (Villingen-Schwenningen, Germany) was used, which emits light at 380 to 480 nm (emission maximum at approximately 420 nm). The applied power was 20 mW/cm^2.
(§8) For each experiment, three controls were carried out at the same time in order to exclude side effects of the irradiation/photosensitizer (PS) on survival of the bacteria: (i) no PS, only light (=light control), (ii) no light, only PS (=dark control), and (iii) neither light nor PS (=reference control).
(§9) After irradiation had been completed, 75 μL of a 25% by weight SDS solution was added to each well of the microtitre plate and the bacterial cells were lysed overnight at 37° C. in an incubator.
(§10) Finally, the optical density (OD) was determined with the aid of a microtitre plate photometer (model EAR 400 AT, SLT Laborinstruments Austria, Salzburg, AT).
(§11) After lysis of the cells and dissolution of the crystals, the dye could then be quantified in a multi-well spectrophotometer (ELISA-Reader) by colorimetric measurement at 550 nm.
(§12) The determination of the colony forming units was carried out in accordance with the method published by Miles and Misra (Miles, AA; Misra, SS, Irwin, JO (1938 November). “The estimation of the bactericidal power of the blood” The Journal of hygiene 38 (6): 732-49). In this regard, serial dilutions from 10^−2 to 10^−9 of the corresponding bacterial suspension were produced. In each case, 3×20 μL of the corresponding bacterial dilutions were then dropped onto Müller-Hinton plates and incubated at 37° C. for 24 h. Next, the number of surviving colony forming units (CFU) was determined. All of the experiments were carried out three times.

[2] = test system: Staphylococcus aureus (S. aureus; ATCC Number: 25923); experiment: as above; type: cell-based; settings: for effectiveness against S. aureus in a microemulsion compared with water: microemulsion versus water
Description: as §1, §2, §3, §4, §5, §6, §7, §8, §9, §10, §11, §12

[3] = time-resolved singlet oxygen luminescence measurements in water and microemulsions; type: physicochemical; design: Integral: unit not given here; settings: for production of singlet oxygen following irradiation with electromagnetic radiation: 5 μM in water or microemulsions; for formation of singlet oxygen in the microemulsions used, times higher than in water: microemulsions versus water; for Integral: singlet oxygen luminescence; for Decay period / Formation time / Relative yield with respect to H2O: singlet oxygen; for Relative yield with respect to H2O: ratio of the integrals
Description: The formation of singlet oxygen following irradiation of a photosensitizer-containing microemulsion was determined using time-resolved singlet oxygen luminescence measurements.
For the relevant measurements, 5 μM of the respective photosensitizers used were dissolved in water or in the emulsions E1 to E4.
The time-resolved singlet oxygen luminescence measurements were carried out in accordance with the methods described in S. Y. Egorov et al., 1999.
A tuneable laser system was used to produce the singlet oxygen (model: NT242-SH/SFG, serial number: PGD048) from EKSPLA (Vilnius, […]). A portion of the monochromatic laser beam produced was directed onto a photodiode which acted as a trigger signal for the time-correlated single photon measurement.
The other part of the laser beam was directed onto a 1 cm thick quartz cell (SUPRASIL, Type 101-QS, Hellma GmbH & Co. KG, Mühlheim, DE), in which the solution to be tested had been disposed.
The formation of singlet oxygen was detected by direct detection of the time- and spectrally-resolved singlet oxygen luminescence.
Singlet oxygen luminescence was carried out by means of a nitrogen-cooled photomultiplier (model R5509-42, Hamamatsu Photonics, Hamamatsu, Japan) and a multiscaler (7886S, FAST Corn Tec GmbH, Oberhaching, Germany).
The singlet oxygen luminescence was detected at a wavelength in the range 1200 nm to 1400 nm using interference filters which were disposed in front of the photomultiplier.
The quantum yield was determined in accordance with the method described in Baier J. et al. (“Singlet Oxygen Generation by UVA Light Exposure of Endogenous Photosensitizers”, Biophys. J. 91(4), 2006, pages 1452 to 1459; doi. 10.1529/biophysj.106.082388).
The relative yield of singlet oxygen for each photosensitizer with respect to the quantity of singlet oxygen formed in water was calculated from the ratio of the integrals.

[4] = photosensitizer 5 μM in microemulsion E1
[5] = photosensitizer 5 μM in microemulsion E2
[6] = photosensitizer 5 μM in microemulsion E1 (DMS, SDS/1-pentanol (1:2); water)
[7] = photosensitizer 5 μM in microemulsion E2 (DMS, SDS/1,2-pentanediol (1:2); water)
[8] = 10 μM in one of the microemulsions E1 to E4
[9] = in one of the microemulsions E1 to E4, from a concentration of 25 μM

| Structure (SMILES) | effectiveness against E. coli in a microemulsion compared with water [1] | effectiveness against S. aureus in a microemulsion compared with water [2] | production of singlet oxygen following irradiation with electromagnetic radiation [3] | formation of singlet oxygen in the microemulsions used, times higher than in water [3] [times] | Integral ([3]; photosensitizer 5 μM in H2O) | Integral [3, 4] | Integral [3, 5] | Decay period ([3]; photosensitizer 5 μM in H2O) [μs] | Formation time ([3]; photosensitizer 5 μM in H2O) [μs] | Decay period [3, 4] [μs] | Formation time [3, 6] [μs] | Decay period [3, 5] [μs] | Formation time [3, 7] [μs] | Relative yield with respect to H2O ([3]; 5 μM in microemulsion E1) | Relative yield with respect to H2O ([3]; 5 μM in microemulsion E2) | reduction in the quantity of E. coli following irradiation [1, 8] | reduction in the quantity of E. coli following irradiation [1, 9] | reduction in the quantity of S. aureus following irradiation [2, 8] | reduction in the quantity of S. aureus following irradiation [2, 9] |
| --- | --- | --- | --- | --- | --- | --- | --- | --- | --- | --- | --- | --- | --- | --- | --- | --- | --- | --- | --- |
| C[N+](C)(C)CC1=Cc2cccc3cccc(c23)C1=O.[Cl-] [SA-PN-02a, N,N,N-trimethyl-1-(1-oxo-1H-phenalen-2-yl)methanaminium chloride] | more effective | more effective |  |  |  |  |  |  |  |  |  |  |  |  |  |  |  |  |  |
| CN(CC1=Cc2cccc3cccc(c23)C1=O)C(=N)N.Cl [SA-PN-24d, 1-((1-oxo-1H-phenalen-2-yl)methyl)-1-methylguanidinium chloride] | more effective | more effective |  |  |  |  |  |  |  |  |  |  |  |  |  |  |  |  |  |
| O=C1C(C[n+]2ccccc2)=Cc2cccc3cccc1c23.[Cl-] [SA-PN-01a] | more effective | more effective | produced singlet oxygen | 7 | 571 | 4413 | 3933 | 3.2 | 2.5 | 9.2 | 1.0 | 7.4 | 1.6 | 7.73 | 6.89 | 3 log10 units | more than 6 log10 units | 3 log10 units | more than 6 log10 units |
| Cc1cc2nc3c(=O)[nH]c(=O)nc-3n(CCN)c2cc1C.Cl [FL-AS-H-1a, 10-(2-aminoeth-1-yl)-7,8-dimethyl-[3H,10H]-benzo[g]pteridine-2,4-dione hydrochloride] |  |  | produced singlet oxygen | 5 | 366 | 1752 | 1695 | 3.6 | 3.6 | 8.6 | 3.0 | 6.7 | 4.0 | 4.79 | 4.63 | approximately 2 log10 units |  | approximately 2 log10 units |  |
